Test results as given in US11331369B2, “Endoparasitic depsipeptides” (Zoetis Services LLC, priority 2017, dated 2022).

Test system: microfilariae of Dirofilaria immitis
Assay: Dirofilaria immitis, Microfilaria (DiMF) In vitro Assay
Format: cell-based
Settings: 72 h, read-out: DiMF Minimum Effective Dose (MED), approximately 72 hours incubation, microfilariae assessed for survival or paralysis

Compound	minimal effective concentration [µM]
Cc1cnn(Cc2ccc(C[C@H]3OC(=O)[C@H](CC(C)C)N(C)C(=O)[C@@H](C)OC(=O)[C@H](CC(C)C)N(C)C(=O)[C@@H](Cc4ccc(Cn5cc(Br)cn5)cc4)OC(=O)[C@H](CC(C)C)N(C)C(=O)[C@@H](C)OC(=O)[C@H](CC(C)C)N(C)C3=O)cc2)c1 [Example 1a-24, (3S,6R,9S,12R,15S,18R,21S,24R)-6-(4-((4-bromo-1H-pyrazol-1-yl)methyl)benzyl)-3,9,15,21-tetraisobutyl-4,10,12,16,22,24-hexamethyl-18-(4-((4-methyl-1H-pyrazol-1-yl)methyl)benzyl)-1,7,13,19-tetraoxa-4,10,16,22-tetraazacyclotetracosan-2,5,8,11,14,17,20,23-octaone]	0.001 to 0.01
Cc1cnn(Cc2ccc(C[C@H]3OC(=O)[C@H](CC(C)C)N(C)C(=O)[C@@H](C)OC(=O)[C@H](CC(C)C)N(C)C(=O)[C@@H](Cc4ccc(Cn5nc(C)c(S(=O)(=O)N6CCCCC6)c5C)cc4)OC(=O)[C@H](CC(C)C)N(C)C(=O)[C@@H](C)OC(=O)[C@H](CC(C)C)N(C)C3=O)cc2)c1 [Example 1a-25, (3S,6R,9S,12R,15S,18R,21S,24R)-6-(4-((3,5-dimethyl-4-(piperidin-1-ylsulfonyl)-1H-pyrazol-1-yl)methyl)benzyl)-3,9,15,21-tetraisobutyl-4,10,12,16,22,24-hexamethyl-18-(4-((4-methyl-1H-pyrazol-1-yl)methyl)benzyl)-1,7,13,19-tetraoxa-4,10,16,22-tetraazacyclotetracosan-2,5,8,11,14,17,20,23-octaone]	0.01 to 0.1
Cc1cnn(Cc2ccc(C[C@H]3OC(=O)[C@H](CC(C)C)N(C)C(=O)[C@@H](C)OC(=O)[C@H](CC(C)C)N(C)C(=O)[C@@H](Cc4ccc(Cn5ccc(-c6ccccc6)n5)cc4)OC(=O)[C@H](CC(C)C)N(C)C(=O)[C@@H](C)OC(=O)[C@H](CC(C)C)N(C)C3=O)cc2)c1 [Example 1a-28, (3S,6R,9S,12R,15S,18R,21S,24R)-3,9,15,21-tetraisobutyl-4,6,10,16,18,22-hexamethyl-12-(4-((4-methyl-1H-pyrazol-1-yl)methyl)benzyl)-24-(4-((3-phenyl-1H-pyrazol-1-yl)methyl)benzyl)-1,7,13,19-tetraoxa-4,10,16,22-tetraazacyclotetracosan-2,5,8,11,14,17,20,23-octaone]	0.01 to 0.1
Cc1cnn(Cc2ccc(C[C@H]3OC(=O)[C@H](CC(C)C)N(C)C(=O)[C@@H](C)OC(=O)[C@H](CC(C)C)N(C)C(=O)[C@@H](Cc4ccc(Cn5ccc(C(F)(F)F)n5)cc4)OC(=O)[C@H](CC(C)C)N(C)C(=O)[C@@H](C)OC(=O)[C@H](CC(C)C)N(C)C3=O)cc2)c1 [Example 1a-29, (3S,6R,9S,12R,15S,18R,21S,24R)-3,9,15,21-tetraisobutyl-4,6,10,16,18,22-hexamethyl-12-(4-((4-methyl-1H-pyrazol-1-yl)methyl)benzyl)-24-(4-((3-(trifluoromethyl)-1H-pyrazol-1-yl)methyl)benzyl)-1,7,13,19-tetraoxa-4,10,16,22-tetraazacyclotetracosan-2,5,8,11,14,17,20,23-octaone]	0.01 to 0.1
Cc1cnn(Cc2ccc(C[C@H]3OC(=O)[C@H](CC(C)C)N(C)C(=O)[C@@H](C)OC(=O)[C@H](CC(C)C)N(C)C(=O)[C@@H](Cc4ccc(Cn5cc(C(F)(F)F)cn5)cc4)OC(=O)[C@H](CC(C)C)N(C)C(=O)[C@@H](C)OC(=O)[C@H](CC(C)C)N(C)C3=O)cc2)c1 [Example 1a-30, (3S,6R,9S,12R,15S,18R,21S,24R)-3,9,15,21-tetraisobutyl-4,6,10,16,18,22-hexamethyl-12-(4-((4-methyl-1H-pyrazol-1-yl)methyl)benzyl)-24-(4-((4-(trifluoromethyl)-1H-pyrazol-1-yl)methyl)benzyl)-1,7,13,19-tetraoxa-4,10,16,22-tetraazacyclotetracosan-2,5,8,11,14,17,20,23-octaone]	0.01 to 0.1
CC(C)C[C@H]1C(=O)O[C@H](Cc2ccc(Cn3cc(Br)c(C#N)n3)cc2)C(=O)N(C)[C@@H](CC(C)C)C(=O)O[C@H](C)C(=O)N(C)[C@@H](CC(C)C)C(=O)O[C@H](Cc2ccc(Cn3cc(N)cn3)cc2)C(=O)N(C)[C@@H](CC(C)C)C(=O)O[C@H](C)C(=O)N1C [Example 1a-32, 1-(4-(((2R,5S,8R,11S,14R,17S,20R,23S)-14-(4-((4-amino-1H-pyrazol-1-yl)methyl)benzyl)-5,11,17,23-tetraisobutyl-4,8,10,16,20,22-hexamethyl-3,6,9,12,15,18,21,24-octaoxo-1,7,13,19-tetraoxa-4,10,16,22-tetraazacyclotetracosan-2-yl)methyl)benzyl)-4-bromo-1H-pyrazole-3-carbonitrile]	0.01 to 0.1
CC(C)C[C@H]1C(=O)O[C@H](Cc2ccc(Cn3nccc3Cl)cc2)C(=O)N(C)[C@@H](CC(C)C)C(=O)O[C@H](C)C(=O)N(C)[C@@H](CC(C)C)C(=O)O[C@H](Cc2ccc(Cn3ccc(Cl)n3)cc2)C(=O)N(C)[C@@H](CC(C)C)C(=O)O[C@H](C)C(=O)N1C [Example 1a-46, (3S,6R,9S,12R,15S,18R,21S,24R)-6-(4-((3-chloro-1H-pyrazol-1-yl)methyl)benzyl)-18-(4-((5-chloro-1H-pyrazol-1-yl)methyl)benzyl)-3,9,15,21-tetraisobutyl-4,10,12,16,22,24-hexamethyl-1,7,13,19-tetraoxa-4,10,16,22-tetraazacyclotetracosan-2,5,8,11,14,17,20,23-octaone]	0.001 to 0.01
Cc1cc(CC#N)nn1Cc1ccc(C[C@H]2OC(=O)[C@H](CC(C)C)N(C)C(=O)[C@@H](C)OC(=O)[C@H](CC(C)C)N(C)C(=O)[C@@H](Cc3ccc(Cn4nc(CC#N)cc4C)cc3)OC(=O)[C@H](CC(C)C)N(C)C(=O)[C@@H](C)OC(=O)[C@H](CC(C)C)N(C)C2=O)cc1 [Example 1b-7, 2,2′-((((((2R,5S,8R,11S,14R,17S,20R,23S)-5,11,17,23-tetraisobutyl-4,8,10,16,20,22-hexamethyl-3,6,9,12,15,18,21,24-octaoxo-1,7,13,19-tetraoxa-4,10,16,22-tetraazacyclotetracosane-2,14-diyl)bis(methylene))bis(4,1-phenylene))bis(methylene))bis(5-methyl-1H-pyrazole-1,3-diyl))diacetonitrile]	0.001 to 0.01
CC(C)C[C@H]1C(=O)O[C@H](Cc2ccc(Cn3nc(CO)cc3C3CC3)cc2)C(=O)N(C)[C@@H](CC(C)C)C(=O)O[C@H](C)C(=O)N(C)[C@@H](CC(C)C)C(=O)O[C@H](Cc2ccc(Cn3nc(CO)cc3C3CC3)cc2)C(=O)N(C)[C@@H](CC(C)C)C(=O)O[C@H](C)C(=O)N1C [Example 1b-8, (3S,6R,9S,12R,15S,18R,21S,24R)-6,18-bis(4-((5-cyclopropyl-3-(hydroxymethyl)-1H-pyrazol-1-yl)methyl)benzyl)-3,9,15,21-tetraisobutyl-4,10,12,16,22,24-hexamethyl-1,7,13,19-tetraoxa-4,10,16,22-tetraazacyclotetracosan-2,5,8,11,14,17,20,23-octaone]	0.001 to 0.01
CC(C)C[C@H]1C(=O)O[C@H](Cc2ccc(Cn3cc(-c4nccs4)cn3)cc2)C(=O)N(C)[C@@H](CC(C)C)C(=O)O[C@H](C)C(=O)N(C)[C@@H](CC(C)C)C(=O)O[C@H](Cc2ccc(Cn3cc(-c4nccs4)cn3)cc2)C(=O)N(C)[C@@H](CC(C)C)C(=O)O[C@H](C)C(=O)N1C [Example 1b-13, (3S,6R,9S,12R,15S,18R,21S,24R)-3,9,15,21-tetraisobutyl-4,6,10,16,18,22-hexamethyl-12,24-bis(4-((4-(thiazol-2-yl)-1H-pyrazol-1-yl)methyl)benzyl)-1,7,13,19-tetraoxa-4,10,16,22-tetraazacyclotetracosan-2,5,8,11,14,17,20,23-octaone]	0.01 to 0.1
CSc1cnn(Cc2ccc(C[C@H]3OC(=O)[C@H](CC(C)C)N(C)C(=O)[C@@H](C)OC(=O)[C@H](CC(C)C)N(C)C(=O)[C@@H](Cc4ccc(Cn5cc(SC)cn5)cc4)OC(=O)[C@H](CC(C)C)N(C)C(=O)[C@@H](C)OC(=O)[C@H](CC(C)C)N(C)C3=O)cc2)c1 [Example 1b-20, (3S,6R,9S,12R,15S,18R,21S,24R)-3,9,15,21-tetraisobutyl-4,6,10,16,18,22-hexamethyl-12,24-bis[[4-[(4-methylsulfanylpyrazol-1-yl)methyl]phenyl]methyl]-1,7,13,19-tetraoxa-4,10,16,22-tetrazacyclotetracosane-2,5,8,11,14,17,20,23-octaone]	0.01 to 0.1
CC(C)C[C@H]1C(=O)O[C@H](Cc2ccc(Cn3cc(/C(N)=N/O)cn3)cc2)C(=O)N(C)[C@@H](CC(C)C)C(=O)O[C@H](C)C(=O)N(C)[C@@H](CC(C)C)C(=O)O[C@H](Cc2ccc(Cn3cc(C(N)=NO)cn3)cc2)C(=O)N(C)[C@@H](CC(C)C)C(=O)O[C@H](C)C(=O)N1C [Example 1b-22, N′-hydroxy-1-[[4-[[(2R,5S,8R,11S,14R,17S,20R,23S)-14-[[4-[[4-[(Z)—N′-hydroxycarbamimidoyl]pyrazol-1-yl]methyl]phenyl]methyl]-5,11,17,23-tetraisobutyl-4,8,10,16,20,22-hexamethyl-3,6,9,12,15,18,21,24-octaoxo-1,7,13,19-tetraoxa-4,10,16,22-tetrazacyclotetracos-2-yl]methyl]phenyl]methyl]pyrazole-4-carboxamidine]	0.01 to 0.1
CCc1cnn(Cc2ccc(C[C@H]3OC(=O)[C@H](CC(C)C)N(C)C(=O)[C@@H](C)OC(=O)[C@H](CC(C)C)N(C)C(=O)[C@@H](Cc4ccc(Cn5cc(CC)cn5)cc4)OC(=O)[C@H](CC(C)C)N(C)C(=O)[C@@H](C)OC(=O)[C@H](CC(C)C)N(C)C3=O)cc2)c1 [Example 1b-31, (3S,6R,9S,12R,15S,18R,21S,24R)-6,18-bis[[4-[(4-ethylpyrazol-1-yl)methyl]phenyl]methyl]-3,9,15,21-tetraisobutyl-4, 10,12,16,22,24-hexamethyl-1,7,13,19-tetraoxa-4,10,16,22-tetrazacyclotetracosane-2,5,8,11,14,17,20,23-octaone]	0.01 to 0.1
